Test results as given in patent US11102978B2, “Herbicide combination” (priority 2016, dated 2021).
Structures can show the parent of a compound that is named as a salt.

Key:
Assay type in all cases: in vivo
[1] = tested on: Papaver rhoeas (weed code—PAPRH); assay: Field trial, weed control of Papaver rhoeas in wheat; details: in Triticum aesti, 12 DAA
Experimental: (§1) Studies were conducted to compare the weed controlling activity of the combination of bensulfuron methyl, metsulfuron methyl with herbicides selected from the classes of synthetic auxins, photosystem II inhibitors, very long chain fatty acid inhibitor, carotene biosynthesis inhibitor and compare its observed efficacy with the “expected” efficacy when bensulfuron methyl and metsulfuron methyl and select individual herbicides were used to treat both dicotyledonous and monocotyledonous weeds. Any difference between the observed and “expected” efficacy could be attributed to synergy between the two compounds in the control of […] weeds. The expected efficacy of a combination of bensulfuron methyl, metsulfuron methyl with herbicides selected from the classes of synthetic auxins, photosystem II inhibitors, very long chain fatty acid inhibitor, carotene biosynthesis inhibitor was calculated using the well-established Colby method.
In the Colby method, the expected (or predicted) response of a combination of herbicides is calculated by taking the product of the observed response for each individual component of the combination when applied alone divided by 100 and subtracting this value from the sum of the observed response for each component when applied alone. An unexpected enhancement in efficacy of the combination is then determined by comparing the observed response of the combination to the expected (or predicted) response as calculated from the observed response of each individual component alone. If the observed response of the combination is greater than the expected (or predicted) response, or stated conversely, if the difference between the observed and expected response is greater than zero, then the combination is said to be synergistic or unexpectedly effective. (Colby, S. R., Weeds, 1967(15), p. 20-22) The Colby method requires only a single dose of each herbicide applied alone and the mixture of both doses. The formula used to calculate the expected efficacy (EE) which was compared with the observed efficacy (OE) to determine the efficacy of the present invention is explained hereinbelow: EE=(B efficacy+A efficacy−(B efficacy×A efficacy)/100)
The weed control activity of the individual herbicides of the invention and their combinations were evaluated on weeds such as Viola arvensis (weed code—VIOAR), Veronica persica (weed code—VERPE), Papaver rhoeas (weed code: PAPRH), Galium aparine (weed code—GALAP), Matricaria recutita weed code—MATCH), Veronica hederifolia (weed code—VERHE) and Viola arvensis (weed code—VIOAR.). The trial was carried out in Randomized Complete Block (RCB) method, all field trials were conducted using this method. Each trial were replicated four times and conducted under GEP guidelines. Application volumes were varied for each mixture. Such field trials were carried out at various locations so as to generate independent data, the locations were chosen randomly across European nations. Bensulfuron methyl and Metsulfuron methyl and selected herbicides were sprayed according to their recommended dosage.
Further field trials were carried out to test the synergy of the combination bensulfuron methyl, metsulfuron methyl and synthetic auxin fluroxypyr. The field trials were carried out at various locations in Europe during spring. […] The target weed was Papaver rhoeas (weed code—PAPRH) and the results are recorded in the table below:
Field trials were carried out test the synergy of the combination bensulfuron methyl, metsulfuron methyl, and synthetic auxin 2,4-D. The field trials were carried out at various locations in Europe during spring. […] The target weed were Senecio vulgaris (weed code—SENVU), Rapistrum rugosum (weed code—RASRU), Papaver rhoeas (weed code—PAPRH), Viola arvensis (Weed code—VIOAR), Roemeria hybrida (Weed code—is ROEHY), Galium aparine (Weed code—GALAP) and the results are recorded in the tables 3 and 4 below: […]

[2] = tested on: Rapistrum rugosum (weed code—RASRU); assay: Field trial, weed control of Rapistrum rugosum in wheat; details: in Triticum aesti
Experimental: as §1
(§2) In the Colby method, the expected (or predicted) response of a combination of herbicides is calculated by taking the product of the observed response for each individual component of the combination when applied alone divided by 100 and subtracting this value from the sum of the observed response for each component when applied alone. An unexpected enhancement in efficacy of the combination is then determined by comparing the observed response of the combination to the expected (or predicted) response as calculated from the observed response of each individual component alone. […]
(§3) The weed control activity of the individual herbicides of the invention and their combinations were evaluated on weeds such as Viola arvensis (weed code—VIOAR), Veronica persica (weed code—VERPE), Papaver rhoeas (weed code: PAPRH), Galium aparine (weed code—GALAP), Matricaria recutita weed code—MATCH), Veronica hederifolia (weed code—VERHE) and Viola arvensis (weed code—VIOAR.). […]

[3] = tested on: Viola arvensis (weed code—VIOAR); assay: Field trial, weed control of Viola arvensis in wheat; details: in Triticum aesti
Experimental: as §1, §2, §3

[4] = tested on: Veronica persica (weed code—VERPE); assay: Field trial, weed control of Veronica persica in wheat; details: in Triticum aesti, dose 50 g + 4 g (bensulfuron methyl + metsulfuron methyl), 125 g (fluroxypyr), 50 g + 4 g + 125 g (mix)
Experimental: as §1
(§4) In the Colby method, the expected (or predicted) response of a combination of herbicides is calculated by taking the product of the observed response for each individual component of the combination when applied alone divided by 100 and subtracting this value from the sum of the observed response for each component when applied alone. […]

[5] = tested on: Senecio vulgaris (weed code—SENVU); assay: Field trial, weed control of Senecio vulgaris in wheat; details: in Triticum aesti, 9 DAA; dose 0.1 Kg/ha (bensulfuron methyl + metsulfuron methyl), 2.6 l/ha (2,4D dimethylamine salt), 2.6 l/ha + 0.1 Kg/ha (mix)
Experimental: as §1, §4

[6] = tested on: Roemeria hybrida (Weed code—is ROEHY); assay: Field trial, weed control of Roemeria hybrida in wheat; details: in Triticum aesti, 15 DAA; dose 0.1 Kg/ha (bensulfuron methyl + metsulfuron methyl), 2.6 l/ha (2,4D dimethylamine salt), 0.1 Kg/ha + 2.6 l/ha (mix)
Experimental: as §1, §4

weeds in general (TTTTT) = assay: Field trial, control of weeds in general in wheat; details: in Triticum aesti, dose 50 g + 4 g (bensulfuron methyl + metsulfuron methyl); for % Weed control TTTTT, Actual: 12 DAA
Experimental: (§5) In the Colby method, the expected (or predicted) response of a combination of herbicides is calculated by taking the product of the observed response for each individual component of the combination when applied alone divided by 100 and subtracting this value from the sum of the observed response for each component when applied alone. An unexpected enhancement in efficacy of the combination is then determined by comparing the observed response of the combination to the expected (or predicted) response as calculated from the observed response of each individual component alone. If the observed response of the combination is greater than the expected (or predicted) response, or stated conversely, if the difference between the observed and expected response is greater than zero, then the combination is said to be synergistic or unexpectedly effective.
(§6) The trial was carried out in Randomized Complete Block (RCB) method, all field trials were conducted using this method. Each trial were replicated four times and conducted under GEP guidelines. Application volumes were varied for each mixture.

[7] = tested on: Galium aparine (Weed code—GALAP); assay: Field trial, weed control of Galium aparine in wheat; details: in Triticum aesti, 16 DAA, dose 0.08 g (bensulfuron methyl + metsulfuron methyl)
Experimental: as §5, §6

[8] = Table 2, PAPRH, dose bensulfuron methyl 50 g, metsulfuron methyl 4 g, fluroxypyr 125 g, mix 50 g + 4 g + 125 g
[9] = Table 2, second PAPRH column pair, dose bensulfuron methyl 50 g, metsulfuron methyl 4 g, fluroxypyr 125 g, mix 50 g + 4 g + 125 g

In the case of `Cc1cc(Cl)ccc1OCC(=O)O` [MCPA dimethylamine salt, 4-chloro-2-methylphenoxy acetic acid], the “% Weed control PAPRH, Actual” value ([1]; Table 5, dose 0.1 kg/ha A (bensulfuron methyl + metsulfuron methyl), 4 l/ha (MCPA dimethylamine salt), 0.1 kg/ha A + 4 l/ha (mix)) is reported as 63.8%, the “% Weed control RASRU, Actual” value ([2]; Table 5, 12 DAA, dose 0.1 kg/ha A (bensulfuron methyl + metsulfuron methyl), 4 l/ha (MCPA dimethylamine salt), 0.1 kg/ha A + 4 l/ha (mix)) is reported as 34.8% and the “% Weed control RASRU, Actual” value ([2]; Table 5, 56 DAA, dose 0.1 kg/ha A (bensulfuron methyl + metsulfuron methyl), 4 l/ha (MCPA dimethylamine salt), 0.1 kg/ha A + 4 l/ha (mix)) is reported as 88.3%.
In the case of `Nc1c(Cl)c(F)nc(OCC(=O)O)c1Cl` [Fluroxypyr, 4-amino-3,5-dichloro-6-fluoro-2-pyridyloxyacetic acid], the “% Weed control VIOAR, Actual” value ([3]; 20 DAA, dose 50 g + 4 g (bensulfuron methyl + metsulfuron methyl), 125 g (fluroxypyr), 50 g + 4 g + 125 g (mix)) is reported as 31%, the “% Weed control VIOAR, Actual” value ([3]; 57 DAA, dose 50 g + 4 g (bensulfuron methyl + metsulfuron methyl), 125 g (fluroxypyr), 50 g + 4 g + 125 g (mix)) is reported as 28% and the “% Weed control VERPE, Actual” value ([4]; 20 DAA) is reported as 51%. The “% Weed control VERPE, Actual” value ([4]; 57 DAA) was 55%, the “% Weed control PAPRH, Actual” value [1, 8] was 28% and the “% Weed control PAPRH, Actual” value [1, 9] was 79%.
In the case of `COC(=O)c1ccccc1CS(=O)(=O)NC(=O)Nc1nc(OC)cc(OC)n1` [Bensulfuron methyl, methyl α-[(4,6-dimethoxypyrimidin-2-ylcarbamoyl)sulfamoyl]-o-toluate], the “% Weed control PAPRH, Actual” value [1, 8] is reported as 50% and the “% Weed control PAPRH, Actual” value [1, 9] is reported as 50%.
`O=C(O)COc1ccc(Cl)cc1Cl` [2,4D dimethylamine salt, 2,4-Dichlorophenoxy acetic acid] was tested, and the “% Weed control VIOAR, Actual” value ([3]; Table 4, 12 DAA, dose 0.1 Kg/ha (bensulfuron methyl + metsulfuron methyl), 2.6 l/ha (2,4D dimethylamine salt), 0.1 Kg/ha + 2.6 l/ha (mix)) was 18.8%, the “% Weed control PAPRH, Actual” value ([1]; Table 3, dose 0.1 Kg/ha (bensulfuron methyl + metsulfuron methyl), 2.6 l/ha (2,4D dimethylamine salt), 2.6 l/ha + 0.1 Kg/ha (mix)) was 37.5% and the “% Weed control SENVU, Actual” value [5] was 62.5%. For the same compound, the “% Weed control RASRU, Actual” value ([2]; Table 3, 12 DAA, dose 0.1 Kg/ha (bensulfuron methyl + metsulfuron methyl), 2.6 l/ha (2,4D dimethylamine salt), 2.6 l/ha + 0.1 Kg/ha (mix)) was 32.4% and the “% Weed control ROEHY, Actual” value [6] was 37.5%.
For `COC(=O)c1ccccc1S(=O)(=O)NC(=O)Nc1nc(C)nc(OC)n1` [Metsulfuron methyl, methyl 2-(4-methoxy-6-methyl-1,3,5-triazin-2-ylcarbamoylsulfamoyl)benzoate], the “% Weed control PAPRH, Actual” value [1, 8] was 48% and the “% Weed control PAPRH, Actual” value [1, 9] was 48.8%.
For `O=C(Nc1ccc(F)cc1F)c1cccnc1Oc1cccc(C(F)(F)F)c1` [Diflufenican, 2′,4′-difluoro-2-(α,α,α-trifluoro-m-tolyloxy)nicotinanilide], the “% Weed control TTTTT, Actual” value (weeds in general (TTTTT); Table 6, first column pair, 0.12 g (diflufenican), 50 g + 4 g + 0.12 g (mix)) was 11.7%, the “% Weed control TTTTT, Actual” value (weeds in general (TTTTT); Table 6, second column pair, 0.16 g (diflufenican), 50 g + 4 g + 0.16 g (mix)) was 3.0% and the “% Weed control TTTT, Actual” value (weeds in general (TTTTT); Table 6, third column pair, 12 DAA T, 0.16 g (diflufenican), 50 g + 4 g + 0.16 g (mix)) was 15%. The “% Weed control GALAP, Actual” value ([7]; Table 7, first column pair, 0.05 g (diflufenican), 0.08 g + 0.05 g (mix)) was 13% and the “% Weed control GALAP, Actual” value ([7]; Table 7, second column pair, 0.08 g (diflufenican), 0.08 g + 0.08 g (mix)) was 20%.
